{"source": "patent US20220040349A1", "about": "“ANTIVIRAL METHODS AND COMPOSITIONS” (priority 2020, published 2022)", "key": {"[1]": {"system": "E coli", "experiment": "Light-activated killing of bacteria (Example III-1)", "format": "cell-based", "description": "No killing of bacteria in the dark has yet been observed."}, "[2]": {"system": "E. coli", "experiment": "Killing of E. coli suspended in solution under irradiation or dark incubation (Part IV)", "format": "cell-based", "settings": "for killing of E. coli / killing of E. coli at longer times: 1-10 μg/mL; for killing of E. coli: five minutes of irradiation; for killing of E. coli at longer times: longer than five minutes; for activity against E. coli in suspension in the dark: dark incubation", "description": "(§1) In the current study we have observed Compound E, Compound D, and Formula X in aqueous media with suspensions of E. coli and SARS-CoV-2 for Compound E and with suspensions of E. coli for Compound D and Formula X. We have also studied these oligomers as supported coatings on various supporting materials including wipe scaffolds, commercial Kimwipes, and proprietary materials from Diamond Wipes and HYDAC."}, "[3]": {"system": "SARS-CoV-2", "experiment": "Compound E in solution: inactivation of SARS-CoV-2 under cool white light, plaque assay on Vero E6 cells", "format": "cell-based"}, "[4]": {"system": "E. coli", "experiment": "Killing of E. coli by compound coated on wet wipe surface or filter", "format": "cell-based", "description": "Compound E was applied to a wet wipe surface and also to the surface of a filter for filtration of air or water.\nas §1"}, "[5]": {"system": "mammal models", "settings": "in vivo"}, "[6]": {"system": "SARS-CoV-2", "experiment": "Compound E-coated glass fiber filter: inactivation of SARS-CoV-2 under cool white light, plaque assay on Vero E6 cells", "format": "cell-based", "settings": "for inactivation of the virus: coated on glass fiber, cool white"}, "[7]": {"system": "bacteria", "experiment": "Antibacterial activity of oligomer IX under visible light and in the dark", "format": "cell-based"}, "[8]": {"system": "SARS-CoV-2", "format": "cell-based", "settings": "cool white; 30 minutes irradiation (earliest point)"}}, "note": "“Also recorded” adds a separate entry of the source."}
{"molecule": "Cn1cc[n+](CCCOc2ccc(C#Cc3ccc(C#Cc4ccc(OCCC[n+]5ccn(C)c5)cc4)cc3)cc2)c1", "note": "[Compound D]", "values": [{"measurement": "relative reactivity", "setting": "[1]", "value": "more reactive than Compound E"}, {"measurement": "anti-bacterial activity using LuzChem cool white light", "setting": "[1]", "value": "excellent anti-bacterial activity"}, {"measurement": "killing of bacteria in the dark", "setting": "[1]", "value": "No killing"}, {"measurement": "light-activated killing of bacteria", "setting": "[1]", "value": "excellent light-activated killing"}, {"measurement": "killing of E. coli", "setting": "[2]; near UV", "value": "~99", "unit": "%"}, {"measurement": "killing of E. coli at longer times", "setting": "[2]; near UV", "value": "complete killing"}, {"measurement": "activity against E. coli in suspension in the dark", "setting": "[2]", "value": "neither compound showed any killing; also recorded: not under visible light or dark conditions"}, {"measurement": "activity against E. coli in suspension under near-UV", "setting": "[2]", "value": "had activity"}, {"measurement": "activity against E. coli in suspension under visible light", "setting": "[2]; visible light", "value": "not under visible light or dark conditions"}]}
{"molecule": "Cn1cc[n+](CCCOc2ccc(C#Cc3ccc(C#Cc4ccc(OCCC[n+]5ccn(C)c5)cc4)s3)cc2)c1", "note": "[Compound E]", "values": [{"measurement": "anti-bacterial activity using LuzChem cool white light", "setting": "[1]", "value": "excellent anti-bacterial activity"}, {"measurement": "killing of bacteria in the dark", "setting": "[1]", "value": "No killing"}, {"measurement": "light-activated killing of bacteria", "setting": "[1]", "value": "excellent light-activated killing"}, {"measurement": "activity against SARS-Cov-2 in suspension in the dark", "setting": "[3]; dark conditions", "value": "not in dark conditions"}, {"measurement": "inactivation of the virus", "setting": "[3]; solution (10 μg/mL), cool white, 5 minutes of irradiation", "value": "> 95", "unit": "%"}, {"measurement": "inactivation at longer irradiation", "setting": "[3]; solution, cool white, 10 minutes or longer", "value": "complete deactivation inactivation"}, {"measurement": "activity against SARS-Cov-2 in suspension", "setting": "[3]; visible light and near-UV", "value": "had activity"}, {"measurement": "light-activated killing of E. coli on coated surface", "setting": "[4]; applied to wet wipe surface and filter surface", "value": "strong light-activated killing"}, {"measurement": "activity against E. coli on a filter in the dark", "setting": "[4]; dark conditions", "value": "not in dark conditions"}, {"measurement": "activity when coated surface immersed in suspension of E. coli", "setting": "[4]; surface immersed in E. coli suspension", "value": "activity was retained"}, {"measurement": "activity against E. coli on a filter", "setting": "[4]; visible light and near-UV", "value": "had activity"}, {"measurement": "toxicity against mammal models", "setting": "[5]", "value": "no toxicity"}, {"measurement": "killing of E. coli", "setting": "[2]; visible light", "value": "~99", "unit": "%"}, {"measurement": "killing of E. coli at longer times", "setting": "[2]; visible light", "value": "complete killing"}, {"measurement": "activity against E. coli in suspension in the dark", "setting": "[2]", "value": "neither compound showed any killing; also recorded: not in dark conditions"}, {"measurement": "activity against E. coli in suspension under near-UV", "setting": "[2]", "value": "had activity"}, {"measurement": "activity against E. coli in suspension under visible light", "setting": "[2]; visible light", "value": "had activity"}, {"measurement": "inactivation of the virus", "setting": "[6]; 10 minutes irradiation", "value": "about 90%"}, {"measurement": "inactivation of the virus", "setting": "[6]; 30 minutes", "value": 3, "unit": "log"}, {"measurement": "activity against SARS-Cov-2 on a filter", "setting": "[6]; visible light and near-UV", "value": "had activity"}]}
{"molecule": "C[N+](C)(C)CCCOc1ccc(C#Cc2ccc(C#Cc3ccc(OCCC[N+](C)(C)C)cc3)cc2)cc1", "note": "[Formula IX]", "values": [{"measurement": "activity against bacteria in the dark", "setting": "[7]; dark", "value": "active against bacteria in the dark"}, {"measurement": "activity under visible light irradiation", "setting": "[7]; visible light", "value": "not active under visible light irradiation"}]}
{"molecule": "C[N+](C)(C)CCCOc1ccc(C#Cc2ccc(C#Cc3ccc(OCCC[N+](C)(C)C)cc3)s2)cc1", "note": "[Formula X]", "values": [{"measurement": "virus present", "setting": "[8]", "value": "no virus present"}, {"measurement": "activity against E. coli in suspension in the dark", "setting": "[2]", "value": "considerable dark reactivity; also recorded: had activity"}, {"measurement": "activity against E. coli in suspension under near-UV", "setting": "[2]", "value": "activity under visible light and near-UV; also recorded: had activity"}, {"measurement": "activity against E. coli in suspension under visible light", "setting": "[2]; visible light", "value": "activity under visible light and near-UV; also recorded: had activity"}]}
